SMILES strings stand for the structures.

Assay type in all cases: functional, organism-based
In one assay the test system is Entamoeba histolytica. In words: Antimicrobial activity against Entamoeba histolytica.
The subject of another assay is Plasmodium falciparum. In words: Antimicrobial activity against Plasmodium falciparum.
The test system of the next assay is Leishmania donovani. Put plainly: Antimicrobial activity against Leishmania donovani.

With `O=P(O)(O)C(Nc1ccc(Br)cn1)P(=O)(O)O`, the IC50 in the assay on Entamoeba histolytica is 44 µM; in the assay on Plasmodium falciparum, 200 µM.
The matching figures for `CCCCCc1ccc(NC(P(=O)(O)O)P(=O)(O)O)cc1`: 132 µM and 46 µM.
For `C=P(O)(O)C(Nc1c(F)c(F)c(F)c(F)c1F)P(=O)(O)O` (centres undefined), in that order: 200 µM and 200 µM.
The matching figures for `O=P(O)(O)C(Nc1ccc(O)cn1)P(=O)(O)O`: 96 µM and 197 µM.
Turning to `CCC[C@H]1C(=O)O[C@@H]2O[C@@]3(C)CC[C@H]4[C@H](C)CC[C@@H]1[C@@]24OO3`, the IC50 in the assay with Leishmania donovani came to 17 µM.
On the same count and under the same terms, next, `C=CC[C@H]1C(=O)O[C@@H]2O[C@@]3(C)CC[C@H]4[C@H](C)CC[C@@H]1[C@@]24OO3`: 18 µM.
In turn, `CCCC[C@H]1C(=O)O[C@@H]2O[C@@]3(C)CC[C@H]4[C@H](C)CC[C@@H]1[C@@]24OO3` registered an IC50 in the assay with Leishmania donovani of 12 µM. Against the preceding compound, the IC50 is about 1.5-fold lower.
Still for that read-out and setting: the figure for `CC(C)CCC[C@H]1C(=O)O[C@@H]2O[C@@]3(C)CC[C@H]4[C@H](C)CC[C@@H]1[C@@]24OO3` is 9 µM; for `C[C@@H]1CC[C@H]2[C@@H](CCCC(F)(F)F)C(=O)O[C@@H]3O[C@@]4(C)CC[C@@H]1[C@]32OO4` it is 79 µM.
On the same count and under the same terms, the figure for `C[C@@H]1CC[C@H]2[C@H](CCCc3ccccc3)C(=O)O[C@@H]3O[C@@]4(C)CC[C@@H]1[C@]32OO4` is 45 µM; for `C[C@@H]1CC[C@H]2[C@@H](CCCCc3ccccc3)C(=O)O[C@@H]3O[C@@]4(C)CC[C@@H]1[C@]32OO4` it is 8 µM.
Still for that read-out and setting: the figure for `C[C@@H]1CC[C@H]2[C@@H](CCCc3cccc(F)c3)C(=O)O[C@@H]3O[C@@]4(C)CC[C@@H]1[C@]32OO4` is 4 µM; for `C[C@@H]1CC[C@H]2[C@@H](CCCc3ccc(Cl)cc3)C(=O)O[C@@H]3O[C@@]4(C)CC[C@@H]1[C@]32OO4` it is 12 µM; for `COc1ccc(CCC[C@H]2C(=O)O[C@@H]3O[C@@]4(C)CC[C@H]5[C@H](C)CC[C@@H]2[C@@]35OO4)cc1` it is 12 µM.
On to `CN(CCCc1ccccc1)CCCC(O)(P(=O)(O)O)P(=O)(O)O`, for which the IC50 in the assay on Entamoeba histolytica was 45 µM; with Plasmodium falciparum, 23 µM.
`O=P(O)(O)C(O)(CCCCNCCCCc1ccccc1)P(=O)(O)O`: the IC50 in the assay with Entamoeba histolytica was determined as 21 µM; with Plasmodium falciparum it was 200 µM.
Compound `CSc1ccc(CCC[C@H]2C(=O)O[C@@H]3O[C@@]4(C)CC[C@H]5[C@H](C)CC[C@@H]2[C@@]35OO4)cc1` had an IC50 with Leishmania donovani of 1 µM.
As for `C[C@@H]1CC[C@H]2[C@@H](CCCc3ccc(S(C)(=O)=O)cc3)C(=O)O[C@@H]3O[C@@]4(C)CC[C@@H]1[C@]32OO4`, half-maximal inhibition in the assay with Leishmania donovani (IC50) required 54 µM.
As for `CN(CCCCc1ccccc1)CCCCC(O)(P(=O)(O)O)P(=O)(O)O`, the IC50 in the assay with Entamoeba histolytica is 23 µM; with Plasmodium falciparum, 3 µM.
The matching figures for `CCCCCC(C)CNC(P(=O)(O)O)P(=O)(O)O` (centres undefined): 65 µM and 103 µM.
For `O=P(O)(O)C(Nc1ncc(Br)cc1Br)P(=O)(O)O`, in that order: 29 µM and 200 µM.
For `O=P(O)(O)C(Nc1ccccn1)P(=O)(O)O`, in that order: 200 µM and 200 µM.
Take `Cc1csc(NC(P(=O)(O)O)P(=O)(O)O)n1`: the IC50 with Entamoeba histolytica came to 200 µM; with Plasmodium falciparum, 5 µM.
For `O=P(O)(O)C(O)(CCc1cccnc1)P(=O)(O)O`, in that order: 200 µM and 200 µM.
As for `O=P(O)(O)C(CNc1ccncc1)P(=O)(O)O`, the IC50 with Entamoeba histolytica and in the assay on Plasmodium falciparum was 200 µM throughout.
In the case of `NCCCCC(O)(P(=O)(O)O)P(=O)(O)O`, the IC50 in the assay with Entamoeba histolytica and in the assay with Plasmodium falciparum was 200 µM throughout.
Regarding `O=P(O)(O)C(O)(Cc1c[nH]cn1)P(=O)(O)O`, the IC50 in the assay with Entamoeba histolytica and in the assay with Plasmodium falciparum was 200 µM each time.
As to `CCOP(=O)(OCC)C(Nc1ncccc1C)P(=O)(OCC)OCC`, the IC50 with Entamoeba histolytica and in the assay with Plasmodium falciparum was 200 µM each time.
As for `O=P(O)(O)C(Nc1cccnc1Cl)P(=O)(O)O`, the IC50 in the assay on Entamoeba histolytica and in the assay with Plasmodium falciparum was 200 µM in each case.
On to `CCOP(=O)(OCC)C(Nc1cc(C)ccn1)P(=O)(OCC)OCC`, for which the IC50 in the assay on Entamoeba histolytica and with Plasmodium falciparum was 200 µM each time.
With `O=P(O)(O)CC(c1cccnc1)P(=O)(O)O` (centres undefined), the IC50 in the assay with Entamoeba histolytica and with Plasmodium falciparum was 200 µM throughout.
Take `Nc1ccc(CC(O)(P(=O)(O)O)P(=O)(O)O)cc1`: the IC50 in the assay with Entamoeba histolytica and with Plasmodium falciparum was 200 µM throughout.
Consider `O=P(O)(O)C(N1CCCCC1)P(=O)(O)O`, for which the IC50 in the assay with Entamoeba histolytica and in the assay on Plasmodium falciparum was 200 µM throughout.
For the compound `O=C(O)c1cn(C2CC2)c2cc(N3CCN(CC(P(=O)(O)O)P(=O)(O)O)CC3)c(F)cc2c1=O`, the IC50 in the assay with Entamoeba histolytica and in the assay with Plasmodium falciparum was 200 µM each time.
As to `O=P(O)(O)C(Nc1ncccc1OCc1ccccc1)P(=O)(O)O`, the IC50 with Entamoeba histolytica and in the assay on Plasmodium falciparum was 200 µM throughout.
Consider `O=P(O)(O)CC(c1ccncc1)P(=O)(O)O` (centres undefined), for which the IC50 with Entamoeba histolytica and in the assay with Plasmodium falciparum was 200 µM in each case.
Take `O=P(O)(O)CC(c1ccccn1)P(=O)(O)O` (centres undefined): the IC50 in the assay on Entamoeba histolytica and in the assay on Plasmodium falciparum was 200 µM in each case.
`CCCCCCc1ccc(NC(P(=O)(O)O)P(=O)(O)O)cc1`: the IC50 in the assay on Entamoeba histolytica amounted to 36 µM; in the assay with Plasmodium falciparum, 103 µM.
For `CCc1cccc(NC(P(=O)(O)O)P(=O)(O)O)c1`, in that order: 200 µM and 200 µM.
The matching figures for `Cc1cccnc1NC(P(=O)(O)O)P(=O)(O)O`: 200 µM and 200 µM.
For `CC(N)CC(O)(P(=O)(O)O)P(=O)(O)O` (centres undefined), in that order: 200 µM and 200 µM.
For the compound `O=P(O)(O)C(Nc1cccc(-c2ccccc2)c1)P(=O)(O)O`, the figures for the IC50 in the assay on Entamoeba histolytica and with Plasmodium falciparum were 7 µM and 200 µM, respectively.
The matching figures for `Cc1ccnc(NC(P(=O)(O)O)P(=O)(O)O)c1`: 200 µM and 200 µM.
The matching figures for `CCCCCCCCCCCCCCCCCC(O)(P(=O)(O)O)P(=O)(O)O`: 200 µM and 200 µM.
`O=P(O)(O)C(O)(Cc1ccncc1)P(=O)(O)O`: the IC50 in the assay on Entamoeba histolytica and in the assay with Plasmodium falciparum was 200 µM in each case.
As to `O=P(O)(O)C(Nc1ccc2c(c1)CCC2)P(=O)(O)O`, the IC50 in the assay with Entamoeba histolytica and with Plasmodium falciparum was 200 µM in each case.
As to `O=P(O)(O)C(O)(Cc1ccccc1)P(=O)(O)O`, the IC50 was determined as 200 µM in the assay on Entamoeba histolytica and 8 µM in the assay on Plasmodium falciparum.
For `O=P(O)(O)C(N1CCC(O)CC1)P(=O)(O)O`, in that order: 200 µM and 200 µM.
For `O=P(O)(O)C(Nc1cc(Cl)cc(Cl)c1)P(=O)(O)O` [(3,5-DICHLOROPHENYLAMINO)METHYLENEDIPHOSPHONIC ACID], in that order: 200 µM and 200 µM.
For `CCCCNC(P(=O)(O)O)P(=O)(O)O` [(BUTYLAMINO)METHYLENEDIPHOSPHONIC ACID], in that order: 200 µM and 200 µM.
Consider `O=P(O)(O)C(NC1CCC1)P(=O)(O)O` [(CYCLOBUTYLAMINO)METHYLENEDIPHOSPHONIC ACID], for which the IC50 with Entamoeba histolytica and in the assay with Plasmodium falciparum was 200 µM throughout.
On to `O=P(O)(O)C(N(C1CCCCC1)C1CCCCC1)P(=O)(O)O` [(DICYCLOHEXYLAMINO)METHYLENEDIPHOSPHONIC ACID], for which the IC50 with Entamoeba histolytica and with Plasmodium falciparum was 200 µM throughout.
For `CCCN(CCC)C(P(=O)(O)O)P(=O)(O)O` [(DIPROPYLAMINO)METHYLENEDIPHOSPHONIC ACID], the IC50 in the assay with Entamoeba histolytica and in the assay with Plasmodium falciparum was 200 µM in each case.
For the compound `CC(C)CNC(P(=O)(O)O)P(=O)(O)O` [(ISOBUTYLAMINO)METHYLENEDIPHOSPHONIC ACID], the half-inhibitory concentration (IC50) in the assay with Entamoeba histolytica and in the assay with Plasmodium falciparum was 200 µM each time.
As to `CCCCCNC(P(=O)(O)O)P(=O)(O)O` [(PENTYLAMINO)METHYLENEDIPHOSPHONIC ACID], the IC50 with Entamoeba histolytica was determined as 200 µM; in the assay on Plasmodium falciparum, 5 µM.
For `O=P(O)(O)C(NCCc1ccccc1)P(=O)(O)O` [(PHENETHYLAMINO)METHYLENEDIPHOSPHONIC ACID], in that order: 200 µM and 200 µM.
With `CCCNC(P(=O)(O)O)P(=O)(O)O` [(PROPYLAMINO)METHYLENEDIPHOSPHONIC ACID], the IC50 with Entamoeba histolytica and in the assay on Plasmodium falciparum was 200 µM throughout.
On to `NCCCC(O)(P(=O)(O)O)P(=O)(O)O` [ALENDRONIC ACID], for which the IC50 in the assay with Entamoeba histolytica and in the assay on Plasmodium falciparum was 200 µM throughout.
For the compound `O=P(O)(O)C(O)(C1CCC1)P(=O)(O)O` [CYCLOBUTYL(HYDROXY)METHYLENEDIPHOSPHONIC ACID], the IC50 in the assay with Entamoeba histolytica and in the assay on Plasmodium falciparum was 200 µM each time.
As for `O=P(O)(O)C(O)(C1CCCCC1)P(=O)(O)O` [CYCLOHEXYL(HYDROXY)METHYLENEDIPHOSPHONIC ACID], the IC50 in the assay with Entamoeba histolytica and in the assay on Plasmodium falciparum was 200 µM throughout.
`O=P(O)(O)C(O)(C1CC1)P(=O)(O)O` [CYCLOPROPYL(HYDROXY)METHYLENEDIPHOSPHONIC ACID]: the concentration for half-maximal inhibition (IC50) with Entamoeba histolytica and in the assay on Plasmodium falciparum was 200 µM throughout.
With `CCCCCN(C)CCC(O)(P(=O)(O)O)P(=O)(O)O` [IBANDRONIC ACID], the IC50 with Entamoeba histolytica came to 54 µM; in the assay on Plasmodium falciparum, 59 µM.
The matching figures for `O=P(O)(O)C(NC1CCCCCC1)P(=O)(O)O` [INCADRONIC ACID]: 200 µM and 200 µM.
The matching figures for `O=P(O)(O)C(N1CCCCCC1)P(=O)(O)O` [N-(HEXAMETHYLENEIMINO)METHYLENEBISPHOSPHONIC ACID]: 200 µM and 200 µM.
The matching figures for `NCCCCCC(O)(P(=O)(O)O)P(=O)(O)O` [NERIDRONIC ACID]: 200 µM and 200 µM.
With `CN(C)CCC(O)(P(=O)(O)O)P(=O)(O)O` [OLPADRONIC ACID], the IC50 with Entamoeba histolytica and in the assay on Plasmodium falciparum was 200 µM each time.
In the case of `NCCC(O)(P(=O)(O)O)P(=O)(O)O` [PAMIDRONIC ACID], the IC50 in the assay on Entamoeba histolytica and in the assay on Plasmodium falciparum was 200 µM in each case.
In the case of `O=P(O)(O)C(N1CCSCC1)P(=O)(O)O` [THIOMORPHOLINOMETHYLENEDIPHOSPHONIC ACID], the IC50 in the assay on Entamoeba histolytica and in the assay on Plasmodium falciparum was 200 µM each time.

One may read the IC50 as the concentration that gives 50% inhibition.

These data come from ChEMBL document CHEMBL1212812, “Multi-target spectral moment QSAR versus ANN for antiparasitic drugs against different parasite species” (Bioorg Med Chem, 2010).
